Key:
[1] = system: rat adrenal medulla-derived cell line PC12; assay: Differentiation of PC12 cells, morphological change (micrographs); assay type: cell-based; conditions: medium containing NGF (positive control); sixth day of culture
Description: In the present example, using rat adrenal medulla-derived cell line PC12, which is neurocyte model cells, obtained from the RIKEN BioResource Center, the effect of 2-Cl—C.OXT-A of Example 1 on the differentiation of PC12 cells was examined.
(§1) Three samples were prepared by adding additives shown in Table 5 below to PBS so as to achieve predetermined concentrations. Also, an evaluation medium was prepared by adding each sample or PBS to DMEM (no serum) so that its concentration became 10 v/v %. Furthermore, as a control medium, a medium containing only DMEM (no serum) was prepared. […] On the sixth day of the culture, the cells were photographed under a microscope, and the AChE activity was measured according to the Ellman's method (Ellman, G. L., et al., Biochem. Pharmacol., 7, pp. 88-95, (1961)). Specifically, the AChE activity was measured in the following manner. […] The sample solution, 75 μl of 10 mmol/l DTNB, and 3.0 ml of 0.1 mol/l phosphate buffer solution (pH 8.0) were added to a […] for absorbance measurement, and finally, 50 μl of 100 mmol/l acetylthiocholine was added to cause a reaction. The absorbance of the reaction solution at 412 nm was measured for 5 minutes from immediately after the addition of the ace tylthiocholine. From the thus-measured absorbances, the amount of increase in absorbance (C) per minute was determined. […]

[2] = system: rat adrenal medulla-derived cell line PC12; assay: Differentiation of PC12 cells, AChE activity (Ellman's method); assay type: cell-based; conditions: NGF (positive control), sixth day of culture
Description: as §1, with “prepared. The PC12 cells were suspended at a density of 5×10^4 cells/ml in DMEM to which 5 v/v % cow serum and 10 v/v % horse serum had been added. Thus, a cell suspension was prepared. 3 ml of the cell suspension was inoculated into a 6 petri dish.” for “prepared.”

ERK = ERK activation (phosphorylation) immunoblot in HUVEC; assay type: cell-based, human
[3] = system: human umbilical vein endothelial cells (HUVEC) and normal human dermal fibroblasts; assay: Measurement of lumen formation (angiogenesis kit, CD31 immunostaining, lumen area); assay type: cell-based
Description: The measurement of lumen formation was carried out in the following manner using commercially available angiogenesis kits (Kurabo), each including human umbilical vein endothelial cells (HUVEC) and normal human dermal fibroblasts. First, sample solutions were prepared by dissolving 2-Cl—C.OXT-A in physiological saline so as to achieve predetermined concentrations (1, 10, 100, 500 μmol/l, 1, 5, 10, 50 mmol/l). Then, the sample solutions containing 2-Cl—C.OXT-A at the predetermined concentrations respectively were added to media provided in the kits so that their concentrations became 10 v/v %. Thus, lumen formation media were prepared. The final concentrations of 2-Cl—C.OXT-A in the lumen formation media were 0.1, 1, 10, 50, 100, 500 μmol/l, 1 and 5 mmol/1.
Using each of the lumen formation media, the human umbilical vein endothelial cells (HUVEC) and the normal human dermal fibroblasts were cultured for 10 days. After the culture, the human umbilical vein endothelial cells (HUVEC) were immunostained using a lumen staining kit (for CD31 staining, Kurabo). Then, using NIH Image (image processing and analysis software), the area of a portion stained by the immunostaining (lumen area) was measured. As a control, a medium provided in the kit was used instead of the lumen formation medium to carry out the culture, and the cells were immunostained and the lumen area was measured in the same manner as in the above. Then, using the following equation (II), the relative value of lumen area in the culture using each of the lumen formation media containing 2-Cl—C.OXT-A at the predetermined concentrations was calculated.
In the present example, the relative value of lumen area was calculated in the same manner as in the lumen formation measurement in Example 1, except that the measurement was carried out with respect to four groups respectively using media Nos. 5 to 8 prepared by adding 2-Cl—C.OXT-A and PD98059 to media provided in the above-described angiogenesis kits (Kurabo) so that their concentrations became as shown in Table 2 below. In the group using the medium No. 7, the culture was conducted using the medium No. 7 from the first to third days of the culture and the medium No. 5 from the fourth to tenth days of the culture, and in the group using the medium No. 8, the culture was conducted using the medium No. 8 from the first to third days of the culture and the medium No. 6 from the fourth to tenth days of the culture.
In the present example, the relative value of lumen area was calculated in the same manner as in the lumen formation measurement in Example 1, except that the measurement was carried out with respect to six groups respectively using media Nos. 15 to 20 prepared by adding 2-Cl—C.OXT-A, VEGF (positive control), and SU5416 to media provided in the above-described angiogenesis kit (Kurabo) so that their concentrations became as shown in Table 4 below. In the group using the medium No. 16, the culture was conducted using the medium No. 16 from the first to third days of the culture and the medium No. 15 from the fourth to tenth days of the culture; in the group using the medium No. 18, the culture was conducted using the medium No. 18 from the first to third days of the culture and the medium No. 17 from the fourth to tenth days of the culture; and in the group using the medium No. 20, the culture was conducted using the medium No. 20 from the first to third days of the culture and the medium No. 19 from the fourth to tenth days of the culture.

[4] = system: Human umbilical vein endothelial cells (HUVEC); assay: Measurement of cell migration (CytoSelect 24-well Cell Migration Assay); assay type: cell-based; conditions: examined in the same manner as in Example 1
Description: Measurement of cell migration was carried out in the following manner using CytoSelect 24-well Cell Migration Assay (CBA-100, Cell Biolabs) kits. First, sample solutions were prepared by dissolving 2-Cl—C.OXT-A in physiological saline so as to achieve predetermined concentrations (0.1, 0.5, 1 mmol/l). Then, the sample solutions containing 2-Cl—C.OXT-A at the predetermined concentrations respectively were added to HuMedia-EB2 media (Kurabo) to which 2 v/v % inactivated fetal bovine serum (FBS) had been added so that their concentrations became 10 v/v %. Thus, cell migration media were prepared. The final concentrations of 2-Cl—C.OXT-A in the cell migration media were 10, 50, and 100 μmol/l.
Human umbilical vein endothelial cells (HUVEC) were suspended in a HuMedia-EB2 medium (Kurabo) to which 2 v/v % inactivated fetal bovine serum (FBS) had been added at a density of 0.5×10^6 cells/ml. Thus, a cell suspension was prepared. 300 μl of the cell suspension was added to an upper compartment (i.e., in an insert) of a polycarbonate membrane plate provided in the kit, and 500 μl of the cell migration medium was added to a lower compartment (i.e., in a well) of the plate. Then, the cells were cultured at 37° C. for 24 hours. After the completion of the culture, the membrane on the inner bottom face of the insert was wiped out with a cotton swab to remove the cells on the membrane. Then, cells having migrated to the rear face of the membrane (the membrane on the outer bottom face of the insert) were stained using a staining solution provided in the kit, and then photographed from below the insert. After the photographing, the dye was extracted with an extracting solution provided in the kit, and the absorbance at 560 nm was measured using a microplate reader. As a control, a HuMedia-EB2 medium (Kurabo) to which 2 v/v % inactivated fetal bovine serum (FBS) had been added was used instead of the cell migration medium to carry out the culture, and the cells were stained and the absorbance was measured in the same manner as in the above. Then, using the above equation (I), the relative absorbance in the culture using each of the cell migration media containing 2-Cl—C.OXT-A at the predetermined concentrations was calculated.

[5] = system: Human umbilical vein endothelial cells (HUVEC); assay: Measurement of cell proliferation (Cell Counting Kit-8); assay type: cell-based; conditions: examined in the same manner as in Example 1
Description: Sample solutions were prepared by dissolving 2-Cl—C.OXT-A in physiological saline so as to achieve predetermined concentrations (0.5, 1, 5, 10, 50, 100 mmol/l). Then, the sample solutions containing 2-Cl—C.OXT-A at the predetermined concentrations respectively were added to HuMedia-EB2 media (Kurabo) to which 2 v/v % inactivated fetal bovine serum (FBS) had been added so that their concentrations became 10 v/v %. Thus, cell proliferation media were prepared. The final concentrations of 2-Cl—C.OXT-A in the cell proliferation media were 50, 100, 500 μmol/l, 1, 5, and 10 mmol/1.
Human umbilical vein endothelial cells (HUVEC) suspended in a HuMedia-EG2 medium (Kurabo) were inoculated into each of gelatin-coated wells of a 96-well plate at a density of 3×10^3 cells per well, and cultured for 24 hours. 24 hours after the start of the culture, the medium was removed, and 100 μl of the cell proliferation medium was added to each well. The cells were cultured for another 48 hours. After the completion of the culture, a color reaction was caused using a Cell Counting Kit-8 (Dojindo Laboratories). 2 hours after the start of the reaction, the absorbance at 450 nm was measured using a microplate reader. As a control, a HuMedia-EB2 medium (Kurabo) to which 2 v/v % inactivated fetal bovine serum (FBS) had been added was used instead of the cell proliferation medium to carry out the culture, and a color reaction was caused and the absorbance was measured in the same manner as in the above. Then, using the following equation (I), the relative absorbance in the culture using each of the cell proliferation media containing 2-Cl—C.OXT-A at the predetermined concentrations was calculated.

Molecule: NGF: nerve growth factor, positive control
- morphological change of PC12 cells (axon extension) [1]: cells from which linear axons extend were observed
- AChE enzyme activity (relative value) [2]: increased

Molecule: Cc1cc(C)c(/C=C2\C(=O)Nc3ccccc32)[nH]1 [SU5416, reference compound]
- increase in pERK (ERK; Example 8, medium No. 10: only SU5416 100 nmol/l): not observed
- ERK activation by 2-Cl—C.OXT-A in the presence of SU5416 (ERK; Example 8, medium No. 12: 2-Cl—C.OXT-A 100 μmol/l + SU5416 100 nmol/l): not inhibited
- increase in pERK by VEGF in the presence of SU5416 (ERK; Example 8, medium No. 14: VEGF 10 ng/ml + SU5416 100 nmol/l): suppressed
- lumen formation ([3]; Example 9, medium No. 16: only SU5416 2.5 μmol/l, versus medium No. 15 (control)): decreased
- lumen formation promotion by 2-Cl—C.OXT-A in the presence of SU5416 ([3]; Example 9, medium No. 18: 2-Cl—C.OXT-A 10 μmol/l + SU5416 2.5 μmol/l, lumen area increased, rate lower than medium No. 17): not inhibited
- lumen area ([3]; Example 9, medium No. 20: VEGF 10 ng/ml + SU5416 2.5 μmol/l): decreased

Molecule: VEGF
- pERK (ERK; Example 8, medium No. 13: VEGF 10 ng/ml): increased
- lumen area ([3]; Example 9, medium No. 19: VEGF 10 ng/ml): increased

Molecule: CSc1nc(N)c2ncn(C3CC(CO)C3CO)c2n1 (stereo not drawn) [2-SMe—C.OXT-A, 6-amino-2-thiomethoxy-9-[trans-trans-2,3-bis (hydroxymethyl)cyclobutyl]purine]
- cell migration promoting-activity for vascular endothelial cells [4]: exhibited
- melting point: 209.4 to 211 °C
- lumen formation promoting-activity for vascular endothelial cells ([3]; examined in the same manner as in Example 1): exhibited
- cell proliferation promoting-activity for vascular endothelial cells [5]: exhibited

Source: patent US20110230659A1, “CYCLOBUTYL PURINE DERIVATIVE, ANGIOGENESIS PROMOTING AGENT, LUMEN FORMATION PROMOTING AGENT, NEUROCYTE GROWTH PROMOTING AGENT, AND DRUG” (NATIONAL UNIVERSITY CORPORATION KAGAWA UNIVERSITY, priority 2008, published 2011)
